Patent US20250275966A1, “GABAA RECEPTOR MODULATOR SALTS, PARTICLES, AND USES THEREOF” (Engrail Therapeutics, Inc., priority 2022, published 2025)
Counter-ions that a name gives are not always drawn.

Tests used:
[1] = Oral non-human primate crossover PK study (Example 7); assay type: in vivo, cynomolgus monkeys; details: four male cynomolgus monkeys, single PO capsule, 34.2 mg/kg fumarate salt (M-3, N-3); for C24(h): 24 hours post-dose, 30 mg/kg free base (K-13); for AUC / Tmax: equivalent on a molar basis to 30 mg/kg free base (K-13)
Description: An objective of this study is to determine the Pharmacokinetic (PK) profile of the Test Article following a single oral administration to four male non-human primate cynomolgus monkeys with one (1) week wash out periods.
Four male animals are used for this study, and the four study animals are used for each of three dosing phases with one-week washout periods. Food is withheld overnight prior to dose administration, and food is returned four hours post-dose administration. Water is provided ad libitum by automatic watering device. Two of the four animals are previously treated with Compound 1, and the other two are Compound 1 naive. Test Article (M-3, N-3, or K-13) are provided as capsulized powders; stored at room temperature protected from light in, for example, a polyolefin bottle.

[2] = Pharmacokinetic analysis of Compound 1 and its salts after oral capsule administration (Example 4); assay type: in vivo, cynomolgus monkeys; details: 3 male cynomolgus monkeys, single PO capsule, 30 mg/kg, plasma Compound 1
Protocol: A pharmacokinetic analysis was performed comparing administration of Compound 1 with certain salts of Compound 1 after oral (PO) administration in 3 male cynomolgus monkeys. The subjects received a single PO oral gavage of active pharmaceutical ingredient (API) (e.g., Compound 1 fumarate, Compound 1 sulfate, Compound 1 hydrochloride, Compound 1 phosphate, Compound 1 tosylate, Compound 1 malonate, Compound 1 maleate, or Compound 1 free base) in a capsule at a dose of 30 mg/kg. Following dose administration, the animals were flushed with approximately 10 milliliters of tap water to ensure all API was administered. Animals were observed twice daily and at sample collection time-points for any abnormal clinical and behavioral signs. Body weights were taken prior to dosing and weekly thereafter until study termination. Blood samples (0.5 mL) were collected pre-dose, 15 minutes, 30 minutes, and 1, 2, 4, 6, 8, 10, 12, and 24 hours post-dose. Each blood sample was collected from the monkey's femoral, saphenous or other available vein via direct venipuncture, placed into a polypropylene tube containing K2EDTA as the anticoagulant, and gently inverted several times to mix. The blood samples were kept on wet ice until centrifugation. Blood was centrifuged within 10 minutes of collection. The samples were centrifuged at a temperature of 4° C., at 3,000 g, for 5 minutes. The resulting plasma (˜0.25 mL) was divided into two equal aliquots (125 μL each) into polypropylene tubes, designated as Set A and Set B, after centrifugation. Plasma samples designated for certain metabolites (Set A) were treated with 12.5 μL of 2 M ascorbic acid (plasma: ascorbic acid=[…], v:v) prepared beforehand by combining 0.352 g of ascorbic acid into 1 mL of sterile water in a glass vial and mixing thoroughly. […] Once plasma was prepared, the samples were snap frozen on dry ice. All plasma samples were stored frozen below −70° C. until analyzed.

[3] = Intrinsic dissolution rate and solubility in 0.1 N HCl with 1% Tween 80 (USP <1087>); assay type: physicochemical
Protocol: The intrinsic dissolution rate was determined by forming compacted pellets of approximately 75 mg of API using a compression force of 1200 pounds of force, and each pellet (die surface area: 0.5 cm^2) was immersed into a flat bottom vessel containing 500 mL of medium (aqueous 0.1 N HCl with 1% Tween 80 (polyoxyethylene (20) sorbitan monooleate)), using a Distek 2100A dissolution bath, and Distek Circulator/heater (set to 37° C.), with a paddle speed of 100 rpm. An aliquot of the sample (1 mL) was pulled from dissolution media at 15, 30, 45, 60, 75, 90, 105, and 120 minutes, filtered, and analyzed by HPLC. The slope of the dissolution profile corresponded to an intrinsic dissolution rate of hemi-fumarate salt Form B of 6.2 μg/(min·cm^2) as compared to 8.9 μg/(min·cm^2) for Compound 1 (free base). Determination of intrinsic dissolution rate (IDR) was performed for Compound 1 and seven different salts of Compound 1 according to USP <1087> in 0.1 N hydrochloric acid with 1% Tween 80 (Polyoxyethylene […] sorbitan monooleate). Compacted pellets containing approximately 75 mg API were prepared using a compression force of 1200 pounds of force, and each pellet (die surface area: 0.5 cm^2) was immersed into a flat bottom vessel containing 500 mL of medium, using a Distek 2100A dissolution bath, and Distek Circulator/heater (set to 37° C.), with a paddle speed of 100 rpm. An aliquot of the sample (1 mL) was pulled from dissolution media at 15, 30, 45, 60, 75, 90, 105, and 120 minutes, filtered, and analyzed by HPLC. HPLC for IDR and solid-state stability analyses were conducted with an Agilent 1260 Infinity system equipped with a G1311B Quad pump, […] Autosampler, G1330B auto-sampler thermostat, G1316A Thermostatted Column Compartment with a column switch valve, and […] diode array detector.

[4] = Solid-state stability by HPLC and XRPD; assay type: physicochemical; details: 40° C./75% RH, after 4 weeks
Protocol: Solid-state stability of the fumarate salt of Compound 1 was assessed after storage at the following conditions for 2 and 4 weeks by HPLC and XRPD: 40° C./75% RH (opened); and 50° C./ambient RH (closed). […] Solid-state stability of Compound 1 and seven salts of Compound 1, as in Example 8, was assessed after storage at the following conditions for 2 and 4 weeks by HPLC and PXRD: 40° C./75% RH (opened); and 50° C./ambient RH (closed). HPLC for IDR and solid-state stability analyses were conducted with an Agilent 1260 Infinity system equipped with a G1311B Quad pump, […] Autosampler, G1330B auto-sampler thermostat, G1316A Thermostatted Column Compartment with a column switch valve, and […] diode array detector.

[5] = Exposure after oral dose of micronized vs non-micronized particles of Compound 1 free base (Example 3); assay type: in vivo; details: male Cynomolgus monkeys, QD, 300 mg/kg, plasma, Mean (n = 3)
Protocol: Exposure of Compound 1 free base following oral (PO) dose administration of 300 mg/kg/dose of micronized particles (Example 1) and 300 mg/kg/dose non-micronized particles (Example 2) were assessed in male Cynomolgus monkeys. Blood samples were collected in K2EDTA coated polypropylene tubes from the femoral vein and plasma was separated. Samples were drawn at the following time points: pre-dose, 15 min, 30 min, 1, 2, 4, 8, 10, 12, 14, 24, 30, and 48 hours post-dose. The concentrations of Compound 1 were determined by LC-MS/MS and pharmacokinetic parameters were determined using Phoenix WinNonlin v8.0) software. [table]

Q: Which “C24(h)” value [1] does the source give for `[2H]C([2H])([2H])C(c1cc2nnc(-c3cc(F)ccc3F)n2nc1OCc1ncnn1C)(C([2H])([2H])[2H])C([2H])([2H])[2H]` [Compound K-13, 3-(2,5-difluorophenyl)-7-[1,1-di(methyl-d3)ethyl-2,2,2-d3]-6-[(1-methyl-1H-1,2,4-triazol-5-yl)methoxy]-1,2,4-triazolo[4,3-b]pyridazine] here?
A: 42 ng·mL

Q: What about the AUC [1] of the same molecule?
A: 1192 ng·h/mL

Q: And the Tmax [1]?
A: 14 h

Q: With `[2H]C([2H])([2H])C(c1cc2nnc(-c3cc(F)ccc3F)n2nc1OCc1ncnn1C)(C([2H])([2H])[2H])C([2H])([2H])[2H]` [Compound M-3] as the molecule, how does the “C24(h)” value [1] read?
A: 603 ng·mL

Q: What about the AUC [1] of the same molecule?
A: 17826 ng·h/mL

Q: And the Tmax [1]?
A: 10 h

Q: What does the source list for `[2H]C([2H])([2H])C(c1cc2nnc(-c3cc(F)ccc3F)n2nc1OCc1ncnn1C)(C([2H])([2H])[2H])C([2H])([2H])[2H]` [Compound N-3]?
A: C24(h) [1]: 684 ng·mL; AUC [1]: 21540 ng·h/mL; Tmax [1]: 4 h

Q: What does the source list for `[2H]C([2H])([2H])C(c1cc2nnc(-c3cc(F)ccc3F)n2nc1OCc1ncnn1C)(C([2H])([2H])[2H])C([2H])([2H])[2H]` [Hydrochloride Salt, 3-(2,5-difluorophenyl)-7-[1,1-di(methyl-d3)ethyl-2,2,2-d3]-6-[(1-methyl-1H-1,2,4-triazol-5-yl)methoxy]-1,2,4-triazolo[4,3-b]pyridazine]?
A: AUClast [2]: 25402 ng·h/mL; Cmax [2]: 1583 ng/mL; Tmax [2]: 4.0 h; Solubility, time point 15 min ([3]; 0.1 N HCl with 1% Tween 80, 37° C., 500 mL, pellet about 75 mg, 15 min): 0.452 µg/mL; Solubility, time point 120 min ([3]; 0.1 N HCl with 1% Tween 80, 37° C., 500 mL, pellet about 75 mg, 120 min): 1.13 µg/mL; Intrinsic Dissolution Rate IDR ([3]; 0.1 N HCl with 1% Tween 80, 37° C., paddle 100 rpm, die surface 0.5 cm^2, listed as HCl Salt): 6.9 μg/(min · cm^2); solubility at 30 min ([3]; 0.1 N HCl with 1% Tween 80, 37 °C, aqueous with cosolvent or surfactant or cyclodextrin, 500 mL, pellet about 75 mg, 30 min, read-out: Solubility, time point 30 min): 0.358 µg/mL; solubility at 45 min ([3]; 0.1 N HCl with 1% Tween 80, 37 °C, aqueous with cosolvent or surfactant or cyclodextrin, 500 mL, pellet about 75 mg, 45 min, read-out: Solubility, time point 45 min): 0.561 µg/mL; solubility at 60 min ([3]; 0.1 N HCl with 1% Tween 80, 37 °C, aqueous with cosolvent or surfactant or cyclodextrin, 500 mL, pellet about 75 mg, 60 min, read-out: Solubility, time point 60 min): 0.59 µg/mL; solubility at 75 min ([3]; 0.1 N HCl with 1% Tween 80, 37 °C, aqueous with cosolvent or surfactant or cyclodextrin, 500 mL, pellet about 75 mg, 75 min, read-out: Solubility, time point 75 min): 0.723 µg/mL; solubility at 90 min ([3]; 0.1 N HCl with 1% Tween 80, 37 °C, aqueous with cosolvent or surfactant or cyclodextrin, 500 mL, pellet about 75 mg, 90 min, read-out: Solubility, time point 90 min): 0.847 µg/mL; solubility at 105 min ([3]; 0.1 N HCl with 1% Tween 80, 37 °C, aqueous with cosolvent or surfactant or cyclodextrin, 500 mL, pellet about 75 mg, 105 min, read-out: Solubility, time point 105 min): 0.989 µg/mL; solubility ([3]; 0.1 N HCl with 1% Tween 80, 37 °C, aqueous with cosolvent or surfactant or cyclodextrin, sum of the 15-120 min time points, read-out: Solubility, Cumulative): 5.65 µg/mL; Solid-state stability, XRPD pattern [4]: small signal at 10° 2θ of Compound 1 (free base)

Q: With `[2H]C([2H])([2H])C(c1cc2nnc(-c3cc(F)ccc3F)n2nc1OCc1ncnn1C)(C([2H])([2H])[2H])C([2H])([2H])[2H]` [micronized, 3-(2,5-difluorophenyl)-7-[1,1-di(methyl-d3)ethyl-2,2,2-d3]-6-[(1-methyl-1H-1,2,4-triazol-5-yl)methoxy]-1,2,4-triazolo[4,3-b]pyridazine] as the molecule, how does the AUClast/Dose [5] read?
A: 530 ± 537 kg·ng·h/mL/mg

Q: What about the “AUC∞/Dose” value [5] of the same molecule?
A: 650 ± 730 kg·ng·h/mL/mg

Q: What about the AUC(0-inf) ([5]; male, cynomolgus monkey, po) of the same molecule?
A: 195000 ± 219000 ng·h/mL

Q: What about the AUC(0-t) ([5]; male, cynomolgus monkey, po) of the same molecule?
A: 159000 ± 161000 ng·h/mL

Q: What about the Cmax ([5]; male, cynomolgus monkey, po, read-out: Cmax) of the same molecule?
A: 6900 ± 5500 ng/mL

Q: What about the Tmax ([5]; male, cynomolgus monkey, po, read-out: Tmax) of the same molecule?
A: 4 ± 3.5 h

Q: What does the source list for `[2H]C([2H])([2H])C(c1cc2nnc(-c3cc(F)ccc3F)n2nc1OCc1ncnn1C)(C([2H])([2H])[2H])C([2H])([2H])[2H]` [non-micronized, 3-(2,5-difluorophenyl)-7-[1,1-di(methyl-d3)ethyl-2,2,2-d3]-6-[(1-methyl-1H-1,2,4-triazol-5-yl)methoxy]-1,2,4-triazolo[4,3-b]pyridazine]?
A: AUClast [5]: 89225 ± 104664 ng·h/mL; AUClast/Dose [5]: 297 ± 349 kg·ng·h/mL/mg; AUC∞ [5]: 98365 ± 119106 ng·h/mL; AUC∞/Dose [5]: 328 ± 397 kg·ng·h/mL/mg; Cmax [5]: 5373 ± 4112 ng/mL; Tmax [5]: 3.30 ± 1.20 h
